Test results reported in publication PMC7468108 (Communications Biology, 2020).

What was measured:
[1] = target: T1, Aβ42 (Homo sapiens, UniProt P05067); experiment: ThT-binding assay, inhibition of Aβ42 aggregation; type: biochemical; conditions: for % amyloid of Aβ42: Aβ42 10 µM; for Normalized ThT fluorescence: Aβ42:compound 1:5
T1 construct: purchased rPeptide (USA)
Description: ThT is known to intercalate within the amyloid fibrils resulting in fluorescence emission proportionate to the amyloid growth.
The resulting thin films were dissolved in PBS (100 mM, pH 7.4) and sonicated for 5 min to get a stock concentration of 50 µM, which immediately diluted to required concentration for an experiment. Stock solutions of ThT (4 mM in PBS) and hybrid molecules (10 mM in PBS) were prepared. All the stock solutions were diluted according to the requirement.
The experiment was performed according to the previous report. […] […] Excitation and emission wavelengths were set at 440 nm and 485 nm, respectively.

[2] = target: T2, pre-formed fibrils of Aβ42 (Homo sapiens, UniProt P05067); experiment: ThT-binding assay, disaggregation of pre-formed Aβ42 fibrils; type: biochemical; conditions: for % amyloid of Aβ42: disaggregation of pre-formed Aβ42 (10 µM) fibrils
T2 construct: purchased rPeptide (USA)
Description: For efficient treatment of proteinopathies it may be advantageous to disassemble amyloid aggregates/fibrils which are usually already present at the time of diagnosis[75]–[77]. […] Then, various doses of the hybrid molecules were added to the pre-formed fibrils and the mixtures were incubated for additional 10 h. The process of disaggregation was monitored by ThT-binding assay, CD spectroscopy, TEM and Congo red staining (Fig. 5).
The experiment was performed according to the previous report. […] Kinetics fluorescence data were collected at 37 °C in triplicate using Infinite M200 microplate reader (Tecan, Switzerland), with measurements acquired at 15 min intervals. Excitation and emission wavelengths were set at 440 nm and 485 nm, respectively.

[3] = target: T3, pre-formed fibrils of hIAPP (Homo sapiens, UniProt P10997); experiment: TEM of pre-formed hIAPP fibrils with the tested molecules; conditions: 5-fold molar excess of compound
T3 construct: hIAPP is a 37-amino acid neuroendocrine peptide hormone; purchased Peptide 2.0 (USA)
T3 sequence (P10997 34-70 limits assumed): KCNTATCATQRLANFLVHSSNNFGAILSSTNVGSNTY
Description: (§1) For efficient treatment of proteinopathies it may be advantageous to disassemble amyloid aggregates/fibrils which are usually already present at the time of diagnosis[75]–[77]. Therefore, the ability of the hybrid molecules to disrupt pre-formed fibrils of Aβ42 and hIAPP was examined. […] According to the ThT kinetic results, this time was sufficient to complete fibril formation (Fig. 2a, d). Then, various doses of the hybrid molecules were added to the pre-formed fibrils and the mixtures were incubated for additional 10 h. The process of disaggregation was monitored by ThT-binding assay, CD spectroscopy, TEM and Congo red staining (Fig. 5).
Samples (10 µL) were placed for 2 min on 400-mesh copper grids covered with carbon-stabilized Formvar film (Electron Microscopy Sciences (EMS), Hatfield, PA). Excess fluid was removed, and grids were negatively stained with 2% uranyl acetate solution (10 µL) for 2 min. After excess fluid removal, the samples were visualized using a JEM-1400 TEM (JEOL), operated at 80 kV.

[4] = target: T2, pre-formed fibrils of Aβ42; experiment: Congo red birefringence of pre-formed Aβ42 fibrils with the tested molecules; conditions: 5-fold excess of compound
Description: as §1

[5] = target: T3, pre-formed fibrils of hIAPP; experiment: Congo red birefringence of pre-formed hIAPP fibrils with the tested molecules; conditions: 5-fold molar excess of compound
Description: as §1

T2 sequence (P05067 672-713 limits assumed): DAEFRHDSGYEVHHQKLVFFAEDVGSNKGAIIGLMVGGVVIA
T1 sequence (P05067 672-713 limits assumed): as above

`NC(Cc1c[nH]c2ccccc12)C(=O)NC(Cc1c[nH]c2ccccc12)C(=O)O` (stereo not drawn) [WW] was tested, and the “inhibition of Aβ42 fibril formation (ThT), in words” value ([1]; any molar ratio (5:1, 1:1, 1:5)) was “no inhibition effect”, the “% amyloid of Aβ42” value ([1]; molar ratio Aβ42:tested molecule 1:1) was 98.904% and the “% amyloid of Aβ42” value ([1]; molar ratio Aβ42:tested molecule 1:5) was 105.519%. For the same compound, the “% amyloid of Aβ42” value ([1]; molar ratio Aβ42:tested molecule 5:1) was 93.190%, the “Normalized ThT fluorescence” value ([1]; time 0.000 h) was 100.247 and the “Normalized ThT fluorescence” value ([1]; time 0.167 h) was 60.188. For the same compound, the “Normalized ThT fluorescence” value ([1]; time 0.333 h) was 57.612, the “Normalized ThT fluorescence” value ([1]; time 0.500 h) was 73.246 and the “Normalized ThT fluorescence” value ([1]; time 0.667 h) was 91.915. For the same compound, the “Normalized ThT fluorescence” value ([1]; time 0.833 h) was 133.372, the “Normalized ThT fluorescence” value ([1]; time 1.000 h) was 185.130 and the “Normalized ThT fluorescence” value ([1]; time 1.167 h) was 238.325. For the same compound, the “Normalized ThT fluorescence” value ([1]; time 1.333 h) was 306.731, the “Normalized ThT fluorescence” value ([1]; time 1.500 h) was 377.171 and the “Normalized ThT fluorescence” value ([1]; time 1.667 h) was 441.860. The “Normalized ThT fluorescence” value ([1]; time 1.833 h) was 512.406, the “Normalized ThT fluorescence” value ([1]; time 2.000 h) was 563.139 and the “Normalized ThT fluorescence” value ([1]; time 2.167 h) was 622.335. For the same compound, the “Normalized ThT fluorescence” value ([1]; time 2.333 h) was 703.467, the “Normalized ThT fluorescence” value ([1]; time 2.500 h) was 748.995 and the “Normalized ThT fluorescence” value ([1]; time 2.667 h) was 831.052. The “Normalized ThT fluorescence” value ([1]; time 2.833 h) was 768.926, the “Normalized ThT fluorescence” value ([1]; time 3.000 h) was 842.887 and the “Normalized ThT fluorescence” value ([1]; time 3.167 h) was 889.978. The “Normalized ThT fluorescence” value ([1]; time 3.333 h) was 935.606, the “Normalized ThT fluorescence” value ([1]; time 3.500 h) was 870.330 and the “Normalized ThT fluorescence” value ([1]; time 3.667 h) was 968.307. For the same compound, the “Normalized ThT fluorescence” value ([1]; time 3.833 h) was 972.259, the “Normalized ThT fluorescence” value ([1]; time 4.000 h) was 873.484 and the “Normalized ThT fluorescence” value ([1]; time 4.167 h) was 934.106. The “Normalized ThT fluorescence” value ([1]; time 4.333 h) was 1006.391, the “Normalized ThT fluorescence” value ([1]; time 4.500 h) was 929.674 and the “Normalized ThT fluorescence” value ([1]; time 4.667 h) was 937.654. The “Normalized ThT fluorescence” value ([1]; time 4.833 h) was 1043.183, the “Normalized ThT fluorescence” value ([1]; time 5.000 h) was 1070.273 and the “Normalized ThT fluorescence” value ([1]; time 5.167 h) was 1001.135. The “Normalized ThT fluorescence” value ([1]; time 5.333 h) was 988.346, the “Normalized ThT fluorescence” value ([1]; time 5.500 h) was 1039.570 and the “Normalized ThT fluorescence” value ([1]; time 5.667 h) was 1028.736. The “Normalized ThT fluorescence” value ([1]; time 5.833 h) was 1034.411, the “Normalized ThT fluorescence” value ([1]; time 6.000 h) was 1074.727 and the “Normalized ThT fluorescence” value ([1]; time 6.167 h) was 1044.333. For the same compound, the “Normalized ThT fluorescence” value ([1]; time 6.333 h) was 1117.377, the “Normalized ThT fluorescence” value ([1]; time 6.500 h) was 1116.291 and the “Normalized ThT fluorescence” value ([1]; time 6.667 h) was 1054.239. For the same compound, the “Normalized ThT fluorescence” value ([1]; time 6.833 h) was 1138.465, the “Normalized ThT fluorescence” value ([1]; time 7.000 h) was 1115.829 and the “Normalized ThT fluorescence” value ([1]; time 7.167 h) was 1058.156. The “Normalized ThT fluorescence” value ([1]; time 7.333 h) was 1094.730, the “Normalized ThT fluorescence” value ([1]; time 7.500 h) was 1092.412 and the “Normalized ThT fluorescence” value ([1]; time 7.667 h) was 1062.031. For the same compound, the “Normalized ThT fluorescence” value ([1]; time 7.833 h) was 1136.103, the “Normalized ThT fluorescence” value ([1]; time 8.000 h) was 1128.627 and the “Normalized ThT fluorescence” value ([1]; time 8.167 h) was 1116.746. The “Normalized ThT fluorescence” value ([1]; time 8.333 h) was 1080.689, the “Normalized ThT fluorescence” value ([1]; time 8.500 h) was 1146.007 and the “Normalized ThT fluorescence” value ([1]; time 8.667 h) was 1085.963. The “Normalized ThT fluorescence” value ([1]; time 8.833 h) was 1146.093, the “Normalized ThT fluorescence” value ([1]; time 9.000 h) was 1168.158 and the “Normalized ThT fluorescence” value ([1]; time 9.167 h) was 1195.194. For the same compound, the “Normalized ThT fluorescence” value ([1]; time 9.333 h) was 1188.939, the “Normalized ThT fluorescence” value ([1]; time 9.500 h) was 1216.176 and the “Normalized ThT fluorescence” value ([1]; time 9.667 h) was 1201.344. For the same compound, the “Normalized ThT fluorescence” value ([1]; time 9.833 h) was 1137.291, the “Normalized ThT fluorescence” value ([1]; time 10.000 h) was 1184.898 and the “Normalized ThT fluorescence” value ([1]; time 10.167 h) was 1153.959. For the same compound, the “Normalized ThT fluorescence” value ([1]; time 10.333 h) was 1205.518, the “Normalized ThT fluorescence” value ([1]; time 10.500 h) was 1174.187 and the “Normalized ThT fluorescence” value ([1]; time 10.667 h) was 1185.205. The “Normalized ThT fluorescence” value ([1]; time 10.833 h) was 1189.623, the “Normalized ThT fluorescence” value ([1]; time 11.000 h) was 1150.543 and the “Normalized ThT fluorescence” value ([1]; time 11.167 h) was 1169.609. The “Normalized ThT fluorescence” value ([1]; time 11.333 h) was 1161.417, the “Normalized ThT fluorescence” value ([1]; time 11.500 h) was 1208.267 and the “Normalized ThT fluorescence” value ([1]; time 11.667 h) was 1187.121. The “Normalized ThT fluorescence” value ([1]; time 11.833 h) was 1199.506, the “Normalized ThT fluorescence” value ([1]; time 12.000 h) was 1229.396 and the “Normalized ThT fluorescence” value ([1]; time 12.167 h) was 1189.375. The “Normalized ThT fluorescence” value ([1]; time 12.333 h) was 1145.079, the “Normalized ThT fluorescence” value ([1]; time 12.500 h) was 1220.539 and the “Normalized ThT fluorescence” value ([1]; time 12.667 h) was 1203.612. For the same compound, the “Normalized ThT fluorescence” value ([1]; time 12.833 h) was 1183.933, the “Normalized ThT fluorescence” value ([1]; time 13.167 h) was 1197.309 and the “Normalized ThT fluorescence” value ([1]; time 13.333 h) was 1166.138. For the same compound, the “Normalized ThT fluorescence” value ([1]; time 13.500 h) was 1200.493, the “Normalized ThT fluorescence” value ([1]; time 13.667 h) was 1198.718 and the “Normalized ThT fluorescence” value ([1]; time 13.833 h) was 1242.576. For the same compound, the “Normalized ThT fluorescence” value ([1]; time 14.000 h) was 1232.657, the “Normalized ThT fluorescence” value ([1]; time 14.167 h) was 1186.307 and the “Normalized ThT fluorescence” value ([1]; time 14.333 h) was 1161.142. For the same compound, the “Normalized ThT fluorescence” value ([1]; time 14.500 h) was 1146.151, the “Normalized ThT fluorescence” value ([1]; time 14.667 h) was 1198.390 and the “Normalized ThT fluorescence” value ([1]; time 14.833 h) was 1196.409. The “Normalized ThT fluorescence” value ([1]; time 15.000 h) was 1194.696, the “Normalized ThT fluorescence” value ([1]; time […]) was 1190.377 and the “increase of ThT fluorescence intensity of pre-formed Aβ42 fibrils” value ([2]; compound added to pre-formed fibrils) was ~ 20%. The “% amyloid of Aβ42” value ([2]; molar ratio Aβ42:tested molecule (1:1)) was 105.449%, the “% amyloid of Aβ42” value ([2]; molar ratio Aβ42:tested molecule (1:5)) was 118.857% and the “% amyloid of Aβ42” value ([2]; molar ratio Aβ42:tested molecule (5:1)) was 102.097%. The “pre-formed hIAPP fibrils by TEM, in words” value [3] was “unchanged”, the “Congo red birefringence of pre-formed Aβ42 fibrils, in words” value [4] was “faint birefringence” and the “Congo red birefringence of pre-formed hIAPP fibrils, in words” value [5] was “unchanged”.
